Test results published in US11007276B2, “Intracellular substance transport system and use thereof” (NATIONAL UNIVERSITY CORPORATION HOKKAIDO UNIVERSITY, priority 2016, dated 2021).

Columns and labels:
[1] = test system: HepG2 liver cancer cells; assay: Hepatocellular carcinoma killing action of sorafenib derivative 32, cell viability assay, 48 h coculture; format: cell-based; details: Homo sapiens; HepG2, 48 hours, small molecule not carried on nanoparticles
Protocol: At 48 hours after the start of coculture, washing was performed 3 times with the medium component and 10 μL of Cell Counting Kit-8 (Dojindo, Kumamoto, Japan) was added to the cell culture medium; incubation was carried out for 1.5 hours in a 37° C. and 5% CO2 atmosphere; and the cancer cell viability was quantitated by measurement of the absorbance at 450 nm (FIG. 15).

[2] = test system: MCF-7 breast cancer cells; assay: Breast cancer cell killing action, viability by MTA/MTT assay (Cell Counting Kit-8); format: cell-based, human; details: 100 μM cisplatin, MCF-7, 96 hours, microscopy
Protocol: Quantitation of dead cells by the MTA assay: MCF7 cells (5×10^3/100 μL/well) were incubated for 24 hours in a 37° C. and 5% CO2 atmosphere, and QD-anchored inhibitor 7 (1 μM, 10±L/MilliQ), QD control (1 μM, 10 μL/MilliQ), compound 7 (1 μM, 10 μL/MilliQ), and cisplatin (1 mM, 10 μL/MilliQ) were then respectively added per 90 μL of the medium and the final concentration was adjusted to 100 nM (but 100 μM for the cisplatin). At 96 hours after the start of culture, washing was performed 3 times with the medium component and 10 μL of the cell culture medium was recovered. Cell Counting Kit-8 solution (Dojindo, Kumamoto, Japan) was added; incubation was carried out for 1.5 hours in a 37° C. and 5% CO2 atmosphere; and the viable cell percentage was quantitated by measurement of the absorbance at 450 nm.
Quantitation of dead cells by the MTT assay: MCF-7 cells (5×10^4/[…]/well) were incubated for 24 hours in a 37° C. and 5% CO2 atmosphere, and QD-anchored inhibitor 15 (1 μM, 10 μL/MilliQ) was then respectively added per […] of the medium and the final concentration was adjusted to 100 nM (but 100 μM for the cisplatin). […]

[3] = test system: cultured cancer cells that express the target kinase group; details: cultured cancer cells expressing the target kinase group; cited from earlier work
[4] = test system: HepG2 cells; details: Lin, L. et al., Cancer Res. 2006; cited from earlier work
[5] = test system: HepG2 liver cancer cells; assay: Hepatocellular carcinoma killing effect, cell viability assay (Cell Counting Kit-8), 96 h coculture; format: cell-based, human
Protocol: HepG2 cells (5×10^4/[…]/well) were incubated for 24 hours in a 37° C. and 5% CO2 atmosphere, and compounds 7, 15, and 20 (10 μL of a solution brought to 1 μM by dissolution in MilliQ) were then respectively added per 90 μL of the medium and the final concentration was adjusted to 100 nM. At 96 hours after the start of coculture, washing was performed 3 times with the medium component and 10 μL of Cell Counting Kit-8 (Dojindo, Kumamoto, Japan) was added to the cell culture medium; incubation was carried out for 1.5 hours in a 37° C. and 5% CO2 atmosphere; and the viable cell percentage was quantitated by measurement of the absorbance at 450 nm. A 100 nM 5-fluorouracil solution (5-FU) was used as a control agent (FIG. 11).
With reference to the preceding experimental results (FIG. 11), an evaluation of the dose dependence and a determination of the IC50 value were performed for the antitumor effect of the inhibitor 7-bearing, phospholipid-coated fluorescent nanoparticles and the inhibitor 15-bearing, phospholipid-coated fluorescent nanoparticles, which had been confirmed to have a significant inhibitory activity on cancer cell growth versus the 5-FU comparative control agent. […]

[6] = test system: various glycosidases; details: free small-molecule compounds; cited from earlier work

Compound: CC(=O)CCCCNC(=O)c1cc(Oc2ccc(NC(=O)Nc3ccc(Cl)c(C(F)(F)F)c3)cc2)ccn1 [compound 32]
- IC50 [1]: 2.1 µM

Compound: N.N.[Cl][Pt][Cl] [cisplatin]
- floating dead cells with altered shapes [2]: floating dead cells with altered shapes were observed

Compound: CNC(=O)c1cc(Oc2ccc(NC(=O)Nc3ccc(Cl)c(C(F)(F)F)c3)cc2)ccn1 [sorafenib]
- IC50 [3]: 4.5 µM
- IC50 [4]: 4.5 µM

Compound: O=c1[nH]cc(F)c(=O)[nH]1 [5-FU, 5-fluorouracil]
- antitumor activity ([5]; 100 nM, HepG2, coculture for 96 hours): a significant antitumor activity was not observed
- IC50 ([5]; Homo sapiens, HepG2, 96 hours of coculture, 5 to 100 nM): > 0.1 µM

Compound: CC(=O)CCCC(=O)Nc1ccc(O[C@@H]2OC(CO)[C@H](O)C(O)C2O)c(C(F)F)c1 (stereo partly drawn) [compound 15]
- native IC50 for various glycosidases in vitro [6]: on the order of mM

Compound: CC(=O)CCCC(=O)Nc1ccc(O[C@]2(C(=O)O)CC(O)[C@@H](NC(C)=O)C([C@H](O)[C@H](O)CO)O2)c(C(F)F)c1 (stereo partly drawn) [compound 20]
- native IC50 for various glycosidases in vitro [6]: on the order of mM

Compound: CC(=O)CCCC(=O)Nc1ccc(O[C@@H]2OC(CO)[C@@H](O)C(O)C2NC(C)=O)c(C(F)F)c1 (stereo partly drawn) [compound 7]
- native IC50 for various glycosidases in vitro [6]: on the order of mM
